{"source": "patent US8513230B2", "about": "“Nuclear transport modulators and uses thereof” (Karyopharm Therapeutics, Inc., priority 2010, dated 2013)", "key": {"[1]": {"test_system": "Human myeloma cell lines (H929)", "assay": "Combination study with doxorubicin, apoptosis by anti-caspase-3 assay", "assay_type": "cell-based", "settings": "H929 cells, compound 16 hrs then doxorubicin 2 umol/L for 4 h", "method": "Combinations studies with doxorubicin. Human myeloma cell lines (H929) grown at 2×10^6 cells/mL (high density) were incubated with and without Example 1 for 16 h followed by doxorubicin (2 umol/L; Sigma) for 4 h and assayed for apoptosis by anti-caspase-3 assay (BD Pharmingen)."}, "[2]": {"test_system": "HCT-116 xenografts", "assay": "HCT-116 xenograft growth and tolerability", "assay_type": "in vivo", "method": "FIG. 5 presents activity data for Example 1 (KPT-127) administered at 150 mg/kg QD×7. […] HCT-116 xenografts were grown to ˜150 mm^3 and low dose KPT-0127 administered. On day 9, when the tumors were ˜350 mm^3, KPT-127 dose was escalated to 150 mg/kg sc daily. Irinotecan was used as a control."}, "[3]": {"test_system": "normal cells", "assay": "Cytotoxicity assay (MTS), normal cells", "assay_type": "cell-based", "settings": "72 hours exposure"}, "[4]": {"test_system": "panel of ~570 solid and hematologic cancer cell lines", "assay": "Cytotoxicity assay (CellTiter 96 AQueous One Solution, MTS) in cancer cell line panel", "assay_type": "cell-based", "settings": "72 hours exposure, IC50 determined by MTS assay", "method": "Cytotoxicity Assay (CellTiter 96® AQueous One Solution Cell Proliferation Assay) Cells were seeded into 96-well plates and compounds at the indicated concentrations were added to the cells after overnight incubation. Seventy two hrs later the proliferation assay was done in the following way: Twenty microliters of CellTiter 96® AQueous One Solution Reagent was added into each well. After 1 hour at 37° C. in a humidified, 5% CO2 atmosphere, the absorbance at 490 nm was recorded using an ELISA plate reader. Test compound was assayed in numerous cancer cell lines using the above assay protocol. Results are depicted in FIG. 3."}, "[5]": {"test_system": "MM1.S xenografts", "assay": "MM1.S xenograft growth", "assay_type": "in vivo", "method": "FIG. 4 presents activity data for Example 1 (KPT-0127) administered at 150 mg/kg QD×5. […] (A) MM1.S cells were grown as xenografts to 130 mm^3 (small) or (B) 1350 mm^3 (large) sizes and were treated with KPT-0127 SC or dexamethasone IP daily×5 and growth was assessed. Treatment of large xenografts is ongoing (data shown after 5 doses of KPT-0127)."}, "[6]": {"test_system": "MM.1S, MM.1R, Jurkat and HS-Sultan cells", "assay": "Isobologram analysis of the interaction with Bortezomib", "assay_type": "cell-based", "method": "The MTT cell proliferation assay was used to study the cytotoxic properties of the compounds. The assay was performed according to the method described by Roche Molecular Biochemicals with minor modifications. The assay is based on the cleavage of the tetrazolium salt, MTT, in the presence of an electron-coupling reagent. The water-insoluble formazan salt produced must be solubilized in an additional step. Cells, grown in a 96-well tissue culture plate, are incubated with the MTT solution for approximately 4 hours. After this incubation period, a water-insoluble formazan dye is formed. After solubilization, the formazan dye is quantitated using a scanning multi-well spectrophotometer (ELISA reader). […] The cells were seeded at 1.5×10^4 cells in each well of 96-well plate in 200 μL of fresh culture medium and were allowed to attach for overnight. The stock solutions of the compounds were diluted in cell culture medium to obtain eight concentrations of each drug, ranging from 1 nM to 20 μM. After 72 h of treatment the medium was aspirated and the cells were washed once with sterile 1×PBS. […]\nTumor cells were assayed for viability in the absence or presence of drug/control treatments, and drug combination dose response studies were analyzed graphically by correlating the fraction of surviving cells with drug concentrations for each drug.r"}, "[7]": {"molecular_target": "T1, Crm1 (Homo sapiens, UniProt O14980)", "T1 construct": "endogenous in cells; host or cells: U2OS-RevGFP cells", "T1 sequence (O14980 whole entry)": "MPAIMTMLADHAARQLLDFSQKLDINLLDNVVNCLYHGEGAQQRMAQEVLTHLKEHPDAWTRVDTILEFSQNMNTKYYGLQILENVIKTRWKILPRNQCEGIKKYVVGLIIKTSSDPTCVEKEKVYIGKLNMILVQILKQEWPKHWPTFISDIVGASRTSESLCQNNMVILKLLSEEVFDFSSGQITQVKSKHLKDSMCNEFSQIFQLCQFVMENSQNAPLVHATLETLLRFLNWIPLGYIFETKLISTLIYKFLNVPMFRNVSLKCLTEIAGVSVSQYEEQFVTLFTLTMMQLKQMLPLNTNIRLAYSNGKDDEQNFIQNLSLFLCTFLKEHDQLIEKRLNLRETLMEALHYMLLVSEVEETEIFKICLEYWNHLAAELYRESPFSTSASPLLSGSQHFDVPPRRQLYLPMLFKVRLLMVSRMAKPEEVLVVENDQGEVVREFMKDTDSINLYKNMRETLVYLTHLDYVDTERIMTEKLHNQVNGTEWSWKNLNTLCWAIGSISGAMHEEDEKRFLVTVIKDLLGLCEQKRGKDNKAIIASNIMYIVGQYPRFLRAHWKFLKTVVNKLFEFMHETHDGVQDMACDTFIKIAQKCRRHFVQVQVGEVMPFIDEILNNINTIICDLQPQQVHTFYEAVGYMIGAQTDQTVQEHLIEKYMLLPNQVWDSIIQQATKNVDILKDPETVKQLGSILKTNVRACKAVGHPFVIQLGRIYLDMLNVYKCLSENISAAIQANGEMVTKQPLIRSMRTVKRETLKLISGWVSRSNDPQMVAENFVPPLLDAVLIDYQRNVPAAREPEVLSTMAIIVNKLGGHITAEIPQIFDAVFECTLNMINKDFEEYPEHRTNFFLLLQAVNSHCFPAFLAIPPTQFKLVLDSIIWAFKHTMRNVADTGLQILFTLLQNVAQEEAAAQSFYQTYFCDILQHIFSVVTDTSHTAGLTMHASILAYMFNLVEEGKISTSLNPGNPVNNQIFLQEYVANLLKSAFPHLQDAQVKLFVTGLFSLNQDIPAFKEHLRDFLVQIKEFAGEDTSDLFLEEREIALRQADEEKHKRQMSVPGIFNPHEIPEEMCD", "assay": "Rev-GFP nuclear export inhibition assay (U2OS-RevGFP cells)", "assay_type": "cell-based", "settings": "~1 hr incubation with compound, read-out: Rev Export (%)/[IC50] OR Cytotoxicity[EC50]", "method": "The evaluation of the affinity of compounds for the Crm1 protein was determined in the RevGFP assay.\nExperimental protocol: Rev is a protein from human immunodeficiency virus type 1 (HIV-1) and contains a nuclear export signal (NES) in its C-terminal domain and a nuclear localization signal (NLS) in its N-terminal domain. Nuclear export of Rev protein is dependent on the classical NES/Crm1 pathway (Neville et al, 1997). Nuclear accumulation of Rev can be observed in cells treated with specific inhibitors of Crm1, such as LMB (Kau et al, 2003). In this assay, U2OS-RevGFP cells are seeded onto clear-bottom, black, 384-well plates the day before the experiment. Compounds are serially diluted 1:2 starting from 40 μM in a separate 384-well plate in DMEM, and then transferred onto cells. Cells are incubated with compound for ˜1 hr before fixation with 3.7% formaldehyde and nuclei staining with Hoechst 33258. The amount of GFP in cell nuclei will be measured and compound IC50s determined (Kau et al, 2003)."}}, "data": [{"smiles": "CC(C)OC(=O)/C=C\\n1cnc(-c2cccc(Cl)c2)n1", "note": "[Example 1, (Z)-3-[3-(3-Chloro-phenyl)-[1,2,4]-triazol-1-yl]-acrylic acid isopropyl ester]", "values": [{"measurement": "sensitization to Topo II inhibitor Doxorubicin (apoptosis)", "setting": "[1]", "result": "sensitizes non-Cyclin resistant Myeloma H929 cells to Topo II inhibitor Doxorubicin"}, {"measurement": "growth of moderate HCT-116 xenografts", "setting": "[2]; 150 mg/kg QD×7, low dose from ~150 mm^3, escalated on day 9 (~350 mm^3) to 150 mg/kg sc daily", "result": "inhibits moderate HCT-116 xenografts"}, {"measurement": "tolerability", "setting": "[2]; 150 mg/kg sc daily", "result": "well tolerated"}, {"measurement": "clinical chemistries and CBCs", "setting": "[2]; HCT-116 xenograft study", "result": "not significantly affected"}, {"measurement": "effect on normal cells", "setting": "[3]", "result": "minimal effect on normal cells"}, {"measurement": "cytotoxicity in hematologic and solid tumor cell lines", "setting": "[4]", "result": "potent and selective cytotoxicity"}, {"measurement": "growth of small MM1.S xenografts", "setting": "[5]; 150 mg/kg QD×5 SC, xenografts grown to 130 mm^3", "result": "inhibits growth"}, {"measurement": "growth of large MM1.S xenografts", "setting": "[5]; 150 mg/kg SC, xenografts 1300 mm^3, data after 5 doses, treatment ongoing", "result": "inhibits growth"}, {"measurement": "interaction with Bortezomib (isobologram analysis)", "setting": "[6]", "result": "synergistic interactions with Bortezomib"}]}, {"smiles": "CC(C)OC(=O)/C=C\\n1cnc(-c2cc(C(F)(F)F)cc(S(C)(=O)=O)c2)n1", "note": "[Example 67, (Z)-isopropyl 3-(3-(3-(methylsulfonyl)-5-(trifluoromethyl)phenyl)-1H-1,2,4-triazol-1-yl)acrylate]", "values": [{"measurement": "IC50", "setting": "[7]", "result": "< 1", "unit": "µM"}]}, {"smiles": "CCOC(=O)/C=C\\n1cnc(-c2cc(F)cc(Cl)c2)n1", "note": "[Example 82, 3-[3-(3-Chloro-5-fluoro-phenyl)-[1,2,4]triazol-1-yl]-acrylic acid ethyl ester]", "values": [{"measurement": "IC50", "setting": "[7]", "result": "1 to 10", "unit": "µM"}]}, {"smiles": "CC(C)N(C)C(=O)/C=C\\c1n[nH]c(-c2cccc(Cl)c2)n1", "note": "[Example 95, 3-[5-(3-Chloro-phenyl)-1H-[1,2,4]triazol-3-yl]-N-isopropyl-N-methyl-acrylamide]", "values": [{"measurement": "IC50", "setting": "[7]", "result": "> 10", "unit": "µM"}]}]}
